Laboratory results reported in US6539252B1, “Method and apparatus for the treatment of blood borne pathogens such as immunodeficiency virus” (priority 1996, dated 2003).

Key:
[1] = test system: eukaryotic microorganisms; conditions: levels as low as; cited from earlier work
HIV virus = assay: treatment of HIV infected human subjects with electrically generated silver ions; viral load by RNA PCR quantification, T4 cell count; assay type: in vivo
From the text: The present invention operates by providing a low intensity direct current to electrode 35. By placing the electrode pad 98 on the surface of the patient in the vicinity of electrode 35, the low intensity direct current will cause the electrode 35 to act as an anode, thereby releasing metal ions into the bloodstream of the patient. These positively charged metal ions are attracted to the negative polarity of the virus, thereby destabilizing it, as discussed above. […] The use of such a large blood vessel is preferred because metal ions such as the preferred silver ion have a half life of approximately seven seconds. The device as will be seen below, creates an average output of four-hundred billion silver cations per second. With an average blood volume of four liters passing by the electrode 35 approximately twice per minute, the probability of a virus passing by the electrode 35 and being bonded to a metal ion increases when the volume of blood available to carry the virus is higher.
(§1) To balance the need for large numbers of silver ions with the need to keep the amount of silver within safer ranges for humans, the power supply 110 supplies two and one-half microamps of current for twelve minutes at the beginning of treatment. This produces 1.56×10(13) ions of silver per second. During the twelve minutes (i.e., seven-hundred twenty seconds) that the power supply 110 supplies two and one-half microamps of current, 0.0018 Coulombs enters the bloodstream (i.e., seven-hundred and twenty seconds multiplied by two and one-half microamps). Under Faraday's law, one mole of silver ions equals 96485 Coulombs. Further, one mole of silver ions weighs 107.87 grams. Thus, in the initial twelve minute operating period, nearly two micrograms (1.94 micrograms) of silver ions are introduced into the bloodstream.
After the initial twelve minute operating period, the low intensity direct current provided by power supply 110 is reduced to one-hundred twenty five nanoamps. This causes the production of silver ions to be produced at a rate of seven-hundred seventy-four billion ions per second. Under a preferred embodiment of the present invention, this level of electric current is maintained for a period of seventy-one hours and forty-eight minutes. During this time (i.e., 258,480 seconds) that the power supply 110 supplies one-hundred twenty-five nanoamps of current, […] enters the bloodstream (i.e., 258,480 seconds multiplied by one-hundred twenty-five nanoamps). Under Faraday's law, one mole of silver ions equals 96485 Coulombs. Further, one mole of silver ions weighs 107.87 grams. Thus, during this entire period, only approximately 36.1 micrograms of silver ions are introduced into the bloodstream. Thus, in the entire seventy-two hour treatment, only 38.1 micrograms of silver have been introduced into the patient's bloodstream.
In a first example, the human patient had 2,165,823 copies of the HIV virus per milliliter of blood by the RNA PCR quantification test method. In addition, this patient's T4 cell (Helper) count was at 18. This particular subject was experiencing serious kidney malfunction prior to treatment. Twenty-four hours after treatment, this patient's viral load was reduced to 1,336,817 copies of the HIV virus per milliliter of blood while the T4 cell count was 11. Because of this patient's kidney malfunction, it was suspected that most of the viral copies detected during the RNA PCR quantization test had been denatured but had not yet been removed from the patient by the kidneys. Thus, one month after treatment, the viral load was measured again and found to be reduced to 621,215 copies of the HIV virus per milliliter of blood.
Thus, the electrode 35 was placed in the subclavian vein. This patient was subjected to twelve minutes of treatment at 2.5 microamps and then only forty-seven hours and forty-eight minutes of treatment at one-hundred twenty-five nanoamps. […]

bacterial pathogens = conditions: silver ions generated in small quantities in the blood stream; cited from earlier work
[2] = human blood serum; cited from earlier work
[3] = test system: feline immunodeficiency virus (FIV); assay: treatment of a cat infected with feline immunodeficiency virus; assay type: in vivo; conditions: seven year old male cat with FIV; about four micrograms silver in 24 min, then one-half microgram per hour for 90 min
From the text: The methods of this invention have also been successfully tested on a different virus and a different host: namely, a cat infected with feline immunodeficiency virus (“FIV”). A seven year old male house cat weighing ten pounds and ten and three-quarter ounces had “heavy third eyelid”, some hair loss, eleven bite marks along his back and rump, and a wound to the top of the ear, all indicative of acute disease. The cat was anesthetized with ketamine, a catheter was placed in the neck, and the negative electrode was placed on the underchest. Approximately four micrograms of silver was delivered in twenty-four minutes, followed by one-half a microgram of silver per hour for ninety minutes.

mammalian cells = conditions: at less than twenty parts per billion in the blood stream; cited from earlier work
[4] = calculated silver content in blood serum during treatment; assay type: in vivo, human; conditions: by Faraday's law
From the text: as §1
After the initial twelve minute operating period, the low intensity direct current provided by power supply 110 is reduced to one-hundred twenty five nanoamps. This causes the production of silver ions to be produced at a rate of seven-hundred seventy-four billion ions per second. Under a preferred embodiment of the present invention, this level of electric current is maintained for a period of seventy-one hours and forty-eight minutes. […]

In the case of `[Ag+]` [silver ions], the “level toxic to eukaryotic microorganisms” value [1] is listed as “one to five”, the “clinical outcome after treatment” value (HIV virus; first human patient) is listed as “immediately felt improved health, was able to eat solid food, and experienced a dramatic increase in quality of life” and the viral load (HIV virus; first human patient, kidney malfunction, baseline 2,165,823, twenty-four hours after treatment, RNA PCR) is listed as 1,336,817 copies of the HIV virus per milliliter of blood. The T4 cell count (HIV virus; first human patient, baseline 18, twenty-four hours after treatment) was 11, the viral load (HIV virus; first human patient, baseline 2,165,823, one month after treatment) was 621,215 copies of the HIV virus per milliliter of blood and the “clinical outcome after treatment” value (HIV virus; second human subject) was “immediately felt improved health and was able to eat solid food”. The viral load (HIV virus; second human subject, electrode in subclavian vein, 12 min at 2.5 microamps then 47 h 48 min at 125 nanoamps, baseline 1,814,466, forty-eight hours after treatment, RNA PCR) was 394,972 copies of the HIV virus per milliliter of blood, the T4 cell count (HIV virus; second human subject, baseline 17, forty-eight hours after treatment) was 18 and the “clinical outcome after treatment” value (HIV virus; third human subject, also on AZT) was “immediately felt improved health, was able to eat solid food, and experienced a dramatic increase in quality of life”. The T4 cell count (HIV virus; third human subject, also on AZT, baseline 5, twenty-four hours after treatment) was 6, the viral load (HIV virus; third human subject, also undergoing treatment with AZT, 12 min at 2.5 microamps then 70 h 18 min at 125 nanoamps, baseline 693,832, twenty-four hours after treatment, RNA PCR) was 634 copies of the HIV virus per milliliter of blood and the “quantity in the blood stream effective in destroying bacterial pathogens” value (bacterial pathogens) was “less than twenty”. For the same compound, the “silver in the blood serum humans can withstand without a toxic reaction” value [2] was “thirty to eighty”, the “clinical outcome the next morning” value [3] was “returned to normal activity and appetite” and the “toxicity to mammalian cells” value (mammalian cells) was “totally nontoxic”. For the same compound, the “silver content in the blood serum” value ([4]; entire seventy-two hour treatment (38.1 micrograms silver)) was “less than nine” and the “silver content in the blood serum” value ([4]; initial twelve minutes at two and one-half microamps (1.94 micrograms silver)) was “less than five”.
